This passage reports IC50 results from patent publication US20260327221A1, “INHIBITORS OF CYCLIC GMP-AMP SYNTHASE AND USES THEREOF” (Ventus Therapeutics U.S., Inc., priority 2023, published 2026).

Each structure is given as a SMILES string.

This experiment has as its target hcGAS (Homo sapiens, UniProt Q8N884). In words: hcGAS LCMS assay (direct measurement of cGAMP production by LC/MS). In kind it is biochemical. As to conditions: 4 h incubation with enzyme and substrates; cGAMP production by LC/MS; class symbols; read-out: hcGAS LCMS IC50. The gist of the method: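 Enzyme, substrates (ATP, GTP) and compound incubated 4 h, then quenched with acetonitrile/water containing 0.15 uM 13C/15N-labeled cGAMP internal standard. cGAMP formed quantified directly by LC/MS on HILIC amide column; IC50 values reported in potency bins.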

hcGAS, sequence (Q8N884 whole entry): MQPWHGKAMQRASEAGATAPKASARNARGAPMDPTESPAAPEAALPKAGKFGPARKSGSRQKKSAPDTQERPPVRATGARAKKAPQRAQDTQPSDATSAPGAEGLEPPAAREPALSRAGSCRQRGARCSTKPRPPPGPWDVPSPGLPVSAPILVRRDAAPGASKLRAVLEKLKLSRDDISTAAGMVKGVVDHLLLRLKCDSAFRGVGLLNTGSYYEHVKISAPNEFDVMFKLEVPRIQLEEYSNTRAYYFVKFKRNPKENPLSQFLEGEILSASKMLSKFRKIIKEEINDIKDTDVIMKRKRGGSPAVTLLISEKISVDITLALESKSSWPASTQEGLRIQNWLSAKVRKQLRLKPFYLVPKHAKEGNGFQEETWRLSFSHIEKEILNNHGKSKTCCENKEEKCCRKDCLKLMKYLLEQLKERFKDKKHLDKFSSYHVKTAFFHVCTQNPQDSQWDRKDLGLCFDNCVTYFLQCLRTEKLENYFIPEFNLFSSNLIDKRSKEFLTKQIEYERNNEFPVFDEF

By IC50 is commonly meant the midpoint of a concentration-inhibition curve. For `COc1cccc(OC)c1-c1cc(C(=O)Nc2nnc(-n3nccc3N)s2)oc(=O)c1O[C@@H](C)CO` (single isomer, unassigned) [Compound 55A*], the IC50 is 0.5 to 1 nM.

Turning to `COc1cccc(OC)c1-c1cc(C(=O)Nc2nnc(-n3nccc3N)s2)oc(=O)c1OCCN1C[C@@H]2C[C@H]1CS2` [93A*, 3-(2-((1S,4S)-2-thia-5-azabicyclo[2.2.1]heptan-5-yl)ethoxy)-N-(5-(5-amino-1H-pyrazol-1-yl)-1,3,4-thiadiazol-2-yl)-4-(2,6-dimethoxyphenyl)-2-oxo-2H-pyran-6-carboxamide], the 50% inhibitory concentration (IC50) lay within 0.5 to 1 nM.

In the case of `COCCOc1c(-c2c(C#N)cccc2OC)cc(C(=O)Nc2nnc(-n3nccc3C(F)F)s2)oc1=O` [Compound 23, 4-(2-cyano-6-methoxyphenyl)-N-(5-(5-(difluoromethyl)-1H-pyrazol-1-yl)-1,3,4-thiadiazol-2-yl)-3-(2-methoxyethoxy)-2-oxo-2H-pyran-6-carboxamide], the IC50 lay in the range of 0.5 to 1 nM. As for `COc1cccc(OC)c1-c1cc(C(=O)Nc2nnc(-n3nccc3N)s2)oc(=O)c1O[C@H]1CCC[C@H](O)C1` (single isomer, unassigned) [109B*], the IC50 was in the range of 0.5 to 1 nM. As for `COCCOc1c(-c2c(C#N)cccc2COC)cc(C(=O)Nc2nnc(-n3nccc3N)s2)oc1=O` [Compound 39, N-(5-(5-amino-1H-pyrazol-1-yl)-1,3,4-thiadiazol-2-yl)-4-(2-cyano-6-(methoxymethyl)phenyl)-3-(2-methoxyethoxy)-2-oxo-2H-pyran-6-carboxamide], the figure is 1 to 5 nM; as for `COCCOc1c(-c2c(C#N)cccc2CO)cc(C(=O)Nc2nnc(-n3nccc3N)s2)oc1=O` [Compound 48, N-(5-(5-amino-1H-pyrazol-1-yl)-1,3,4-thiadiazol-2-yl)-4-(2-cyano-6-(hydroxymethyl)phenyl)-3-(2-methoxyethoxy)-2-oxo-2H-pyran-6-carboxamide], 0.5 to 1 nM. `COc1cccc(Cl)c1-c1cc(C(=O)Nc2nnc(-n3nccc3N)s2)oc(=O)c1OCCO` (single isomer, unassigned) [Compound 34B*, (Ra)—N-(5-(5-amino-1H-pyrazol-1-yl)-1,3,4-thiadiazol-2-yl)-4-(2-chloro-6-methoxyphenyl)-3-(2-hydroxyethoxy)-2-oxo-2H-pyran-6-carboxamide]: the IC50 was < 0.5 nM.

With `COCCOc1c(-c2c(C#N)cccc2C#N)cc(C(=O)Nc2nnc(-n3nccc3N)s2)oc1=O` [Compound 12, N-(5-(5-amino-1H-pyrazol-1-yl)-1,3,4-thiadiazol-2-yl)-4-(2,6-dicyanophenyl)-3-(2-methoxyethoxy)-2-oxo-2H-pyran-6-carboxamide], the IC50 is 0.5 to 1 nM. As for `COCCOc1c(-c2c(OC)cccc2OC)cc(C(=O)Nc2nnc(-n3nccc3N)s2)oc1=O` [Compound 6, N-(5-(5-amino-1H-pyrazol-1-yl)-1,3,4-thiadiazol-2-yl)-4-(2,6-dimethoxyphenyl)-3-(2-methoxyethoxy)-2-oxo-2H-pyran-6-carboxamide], the figure is 0.5 to 1 nM; as for `COc1cccc(OC)c1-c1cc(C(=O)Nc2nnc(-n3nccc3N)s2)oc(=O)c1OC[C@@H](CO)OC` [38B*, (R)-N-(5-(5-amino-1H-pyrazol-1-yl)-1,3,4-thiadiazol-2-yl)-4-(2,6-dimethoxyphenyl)-3-(3-hydroxy-2-methoxypropoxy)-2-oxo-2H-pyran-6-carboxamide], 0.5 to 1 nM.

Regarding `COc1cccnc1-c1cc(C(=O)Nc2nnc(-n3nccc3N)s2)oc(=O)c1O[C@H](C)CO` [Compound 107B, (R)-N-(5-(5-amino-1H-pyrazol-1-yl)-1,3,4-thiadiazol-2-yl)-3-((1-hydroxypropan-2-yl)oxy)-4-(3-methoxypyridin-2-yl)-2-oxo-2H-pyran-6-carboxamide], the IC50 was 0.5 to 1 nM.

For the molecule `COc1cccc(OC)c1-c1cc(C(=O)Nc2nnc(-n3nccc3N)s2)oc(=O)c1O[C@H]1CCCC[C@@H]1O` (single isomer, unassigned) [110B*], the IC50 lay within 0.5 to 1 nM. The figure for `COc1cccc(OC)c1-c1cc(C(=O)Nc2nnc(-n3nccc3N)s2)oc(=O)c1O[C@@H]1CCC[C@@H](O)C1` (single isomer, unassigned) [109A*] is 1 to 5 nM. In the case of `COc1cccc(OC)c1-c1cc(C(=O)Nc2nnc(-n3nccc3N)s2)oc(=O)c1OCC(=O)N1CCSCC1` [Compound 90, N-(5-(5-amino-1H-pyrazol-1-yl)-1,3,4-thiadiazol-2-yl)-4-(2,6-dimethoxyphenyl)-2-oxo-3-(2-oxo-2-thiomorpholinoethoxy)-2H-pyran-6-carboxamide], the IC50 is < 0.5 nM. Regarding `COC[C@H](C)Oc1c(-c2c(OC)cccc2OC)cc(C(=O)Nc2nnc(-n3nccc3N)s2)oc1=O` [Compound 47A, (S)—N-(5-(5-amino-1H-pyrazol-1-yl)-1,3,4-thiadiazol-2-yl)-4-(2,6-dimethoxyphenyl)-3-((1-methoxypropan-2-yl)oxy)-2-oxo-2H-pyran-6-carboxamide], the IC50 lay in the range of 1 to 5 nM. Take `COc1cccc(OC)c1-c1cc(C(=O)Nc2nnc(-n3nccc3N)s2)oc(=O)c1OCC1CSCCO1` (stereo not shown) [83A*/83B*]: the IC50 lay in the range of 0.5 to 1 nM. `COCCOc1c(-c2c(C)cccc2OC)cc(C(=O)Nc2nnc(-n3nccc3N)s2)oc1=O` [Compound 11, N-(5-(5-amino-1H-pyrazol-1-yl)-1,3,4-thiadiazol-2-yl)-4-(2-methoxy-6-methylphenyl)-3-(2-methoxyethoxy)-2-oxo-2H-pyran-6-carboxamide]: the IC50 was 0.5 to 1 nM. Turning to `COCCOc1c(-c2c(OC)ccnc2OC)cc(C(=O)Nc2nnc(-n3nccc3N)s2)oc1=O` [Compound 19, N-(5-(5-amino-1H-pyrazol-1-yl)-1,3,4-thiadiazol-2-yl)-4-(2,4-dimethoxypyridin-3-yl)-3-(2-methoxyethoxy)-2-oxo-2H-pyran-6-carboxamide], the IC50 is 1 to 5 nM.

As to `COc1cccc(OC)c1-c1cc(C(=O)Nc2nnc(-n3nccc3N)s2)oc(=O)c1OC[C@@H](C)O` [Compound 46A, (R)—N-(5-(5-amino-1H-pyrazol-1-yl)-1,3,4-thiadiazol-2-yl)-4-(2,6-dimethoxyphenyl)-3-(2-hydroxypropoxy)-2-oxo-2H-pyran-6-carboxamide], the IC50 was in the range of 0.5 to 1 nM.

Turning to `COc1cccnc1-c1cc(C(=O)Nc2nnc(-n3nccc3N)s2)oc(=O)c1O[C@H]1CCC[C@@H](OC)C1` (single isomer, unassigned) [113C*], the IC50 is ≥ 60 nM.

For the molecule `COCCOc1c(-c2ncc(Cl)cc2OC)cc(C(=O)Nc2nnc(-n3nccc3N)s2)oc1=O` [Compound 58, N-(5-(5-amino-1H-pyrazol-1-yl)-1,3,4-thiadiazol-2-yl)-4-(5-chloro-3-methoxypyridin-2-yl)-3-(2-methoxyethoxy)-2-oxo-2H-pyran-6-carboxamide], the IC50 is 0.5 to 1 nM. In the case of `COc1cccc(OC)c1-c1cc(C(=O)Nc2nnc(-n3nccc3N)s2)oc(=O)c1O[C@H](CO)CN1CCSCC1` [81A*, (S)-N-(5-(5-amino-1H-pyrazol-1-yl)-1,3,4-thiadiazol-2-yl)-4-(2,6-dimethoxyphenyl)-3-((1-hydroxy-3-thiomorpholinopropan-2-yl)oxy)-2-oxo-2H-pyran-6-carboxamide], the IC50 was 1 to 5 nM. In the case of `COCCOc1c(-c2nc(OC)ccc2OC)cc(C(=O)Nc2nnc(-n3nccc3N)s2)oc1=O` [Compound 49, N-(5-(5-amino-1H-pyrazol-1-yl)-1,3,4-thiadiazol-2-yl)-4-(3,6-dimethoxypyridin-2-yl)-3-(2-methoxyethoxy)-2-oxo-2H-pyran-6-carboxamide], the IC50 is 1 to 5 nM. As to `COc1cccc(OC)c1-c1cc(C(=O)Nc2nnc(-n3nccc3N)s2)oc(=O)c1OC[C@@H]1COCCO1` (single isomer, unassigned) [Compound 43A*], the IC50 fell in the range of 0.5 to 1 nM. Take `COc1cccc(OC)c1-c1cc(C(=O)Nc2nnc(-n3nccc3N)s2)oc(=O)c1OCC(C)(C)CO` [Compound 36, N-(5-(5-amino-1H-pyrazol-1-yl)-1,3,4-thiadiazol-2-yl)-4-(2,6-dimethoxyphenyl)-3-(3-hydroxy-2,2-dimethylpropoxy)-2-oxo-2H-pyran-6-carboxamide]: the concentration for half-maximal inhibition (IC50) is 0.5 to 1 nM.
